Data set [1] is described as follows: Difference of pharmacokinetic parameters between intravenous microdialysis and standard plasma sampling. Conditions: intravenous microdialysis minus standard plasma, mean (95% confidence interval). Here is the method:
(§1) For the data analysis, the microdialysate concentrations were attributed to the midpoint of the sampling interval. The pharmacokinetic parameters and statistical analysis were performed using STATA (v. 17.0 StataCorp, College Station, TX, USA) for continuous intravenous microdialysis samples and standard plasma samples separately. […] AUC was calculated using the linear-up/log-down method. Cmax was calculated as the maximum of all the concentrations and Tmax as the time to reach Cmax. For comparison between the two sampling methods, the difference of pharmakokinetic parameters between methods is calculated including 95% confidence intervals. The Kenward–Roger approximation method was used due to small sample size, as a correction for degrees of freedom. Model assumptions were tested by visual diagnosis of residuals, fitted values, and estimates of random effects.

Data set [2] in a line: Pharmacokinetics from standard plasma sampling (central venous catheter), free unbound concentrations. The settings on record: vancomycin 1 g iv infused over 100 min, co-administered with meropenem, eight female pigs, standard plasma samples, mean (95% confidence interval).
From the text: (§2) Eight female pigs, Danish Landrace Breed, weight 78–82 kg, were included. […] Intravenous microdialysis catheters were inserted into the left subclavian vein, guided by ultrasound and using a peripheral venous introducer. On the opposite side of the throat, a central venous catheter was placed for standard plasma sampling (Figure 3). At the end of the sampling period, all pigs were euthanized by intravenous injection of pentobarbital.
After placement, the intravenous microdialysis catheters were perfused with 0.9% NaCl followed by a 20 min tissue equilibrium period. […] Dialysates were collected during an 8 h sampling period every 30 min from time 0 to 240 min and every 60 min from time 240 to 480 min, resulting in 12 dialysates per pig. Plasma samples, each containing approximately 4 mL, were collected from the central venous catheter in the middle of every dialysate sampling interval to EDTA tubes. […] After a 30 min equilibrium period, one calibration sample was collected over a 40 min interval. Collected plasma samples were stored at 5 °C for a maximum of 6 h before being centrifuged at 3000× g for 10 min. Dialysates and plasma samples were frozen at −80 °C until analysis.
The principle of this analysis is that (in competition) the free drug competes with a drug–enzyme conjugate for the antibody (File S1). […] Meropenem was quantified using ultra-high-performance liquid chromatography (UHPLC). Quantification was performed after ultrafiltration of the plasma samples using a centrifree ultrafiltration device with a nominal molecular weight limit of 30 kDa (Millipore). Some 5 µL of the filtrate was prepared for analysis.
as §1

Data set [3] in a line: Pharmacokinetics from continuous intravenous microdialysis sampling (subclavian vein), free unbound concentrations. Conditions: vancomycin 1 g iv infused over 100 min, co-administered with meropenem, eight female pigs, mean (95% confidence interval). The method, then: In the microdialysis system, complete equilibrium will not occur across the semipermeable membrane, due to the constant flow. As such, the obtained concentration in the dialysates represents a fraction of the actual concentration. This fraction is referred to as the relative recovery, and it is essential to calculate to determine the absolute concentration of an analyte. In this study, calibration using retrodialysis by drug was used. Relative recovery was calculated by the following equation:(1) Relative recovery %=100 ·1−Cdialysate/Cperfusate
(2) Cplasma=100 ·Cdialysate/Relative recovery %
All the microdialysis equipment was acquired from M Dialysis AB (Stockholm, Sweden), and consisted of 67 Intravenous Microdialysis Catheters with a membrane length of 30 mm, a 20 kD cut-off, and 107 Microdialysis pumps set at a flow rate of 1 μL/min.
as §2
After placement, the intravenous microdialysis catheters were perfused with 0.9% NaCl followed by a 20 min tissue equilibrium period. […]
A 3 µL sample volume was introduced into the UHPLC system with a C18 column and further analyzed with mass spectrometry. […]
For the data analysis, the microdialysate concentrations were attributed to the midpoint of the sampling interval. […] AUC was calculated using the linear-up/log-down method. Cmax was calculated as the maximum of all the concentrations and Tmax as the time to reach Cmax. For comparison between the two sampling methods, the difference of pharmakokinetic parameters between methods is calculated including 95% confidence intervals. […]

Structures are written as SMILES.

Take `C[C@@H](O)[C@H]1C(=O)N2C(C(=O)O)=C(S[C@@H]3CN[C@H](C(=O)N(C)C)C3)[C@H](C)[C@H]12` [Meropenem, meropenem]: in data set [1] (meropenem), the “Tmax, difference between methods” value is 5 (−8; 18) min.

For `CN[C@H](CC(C)C)C(=O)N[C@H]1C(=O)N[C@@H](CC(N)=O)C(=O)N[C@H]2C(=O)N[C@H]3C(=O)N[C@H](C(=O)N[C@H](C(=O)O)c4cc(O)cc(O)c4-c4cc3ccc4O)[C@H](O)c3ccc(c(Cl)c3)Oc3cc2cc(c3O[C@@H]2O[C@H](CO)[C@@H](O)[C@H](O)[C@H]2O[C@H]2C[C@](C)(N)[C@H](O)[C@H](C)O2)Oc2ccc(cc2Cl)[C@H]1O` [Vancomycin, vancomycin], in data set [1] (vancomycin), the “T1/2, difference between methods” value is given as 45 (−55; 146) min. In data set [1] (vancomycin), the “Tmax, difference between methods” value is on record as 25 (4.3; 46) min. For the same compound, the Cmax in data set [2] (homogeneous enzyme immunoassay) is recorded as 36 (24; 49) µg/mL; in data set [3] (intravenous microdialysis, 1 μL/min, UHPLC-MS/MS, recovery-corrected), 14 (2; 26) µg/mL. Also, the “AUC0–8h” value in data set [2] (homogeneous enzyme immunoassay, non-compartmental) is 7014 (5779; 8249) min µg/mL. Further, the T1/2 in data set [2] is reported as 197 (124; 270) min; in data set [3] (intravenous microdialysis samples), 242 (162; 322) min. Further, the Tmax was 85 (72; 98) min in data set [2] and 110 (97; 123) min in data set [3] (intravenous microdialysis samples, concentrations attributed to midpoint of sampling interval).

The values above are taken from paper PMC10135263 (Antibiotics, 2023).
